# Reference: article PMC5209880, “Mobilization of hematopoietic stem cells with the novel CXCR4 antagonist POL6326 (balixafortide) in healthy volunteers—results of a dose escalation trial” (Journal of Translational Medicine, 2017)
# Where two headings read alike, the source gives them in different places.
# B1: filgrastim (protein, UniProt P09919 31-207, looked up)
# Granulocyte …: TPLGPASSLPQSFLLKCLEQVRKIQGDGAALQEKLVSECATYKLCHPEELVLLGHSLGIPWAPLSSCPSQALQLAGCLSQLHSGLFLYQGLLQALEGISPELGPTLDTLQLDVADFATTIWQQMEELGMAPALQPTQGAMPAFASAFQRRAGGVLVASHLQSFLEVSYRVLRHLAQP
# modifications: filgrastim, N-terminal Met
# notes: cytokine, standard hematopoietic stem and progenitor cell mobilizing agent
# Tests used:
# [1] = system: healthy male volunteers; assay: Phase I dose escalation trial: safety and tolerability, adverse events
# Method: Additional eligibility (inclusion) criteria for treatment with balixafortide were the same as for G-CSF mobilized stem cell donation. Between G-CSF mobilization/HSPC donation and study participation there was a wash-out period of at least 6 weeks.
# Study drug was administered on an in-patient basis in the phase I clinical trial unit of Goethe University Medical Center, the ‘Klinisches Studienzentrum Rhein-Main’. Volunteers were discharged 24 h after treatment, to return for a follow-up appointment 8–14 days thereafter.
# (§1) A total of 27 volunteers were treated with balixafortide. A treatment consisted of a single intravenous infusion of balixafortide in normal saline at doses of 500, 1000, 1500, 2000 and 2500 μg/kg, based on actual weight, followed by sequential clinical and blood analyses (see below). Initially conceived as a classical 3 + 3 dose escalation design, the volunteers were assigned to four groups defined by increasing dose levels of balixafortide (500, 1000, 1500, and 2000 μg/kg) administered by constant rate infusion at over 2 h. Subsequently, amendments were added to test additional modalities: Group 6 received 2500 μg/kg under the same conditions. Volunteers assigned to Group 5 received a dose level of 2000 μg/kg by an continuously increasing infusion rate (ramp-infusion instead of constant rate infusion) applied over 2 h. In group 7, a dose level of 1000 μg/kg was infused over 1 h at a constant rate and compared (intra-individually) to the 2 h infusion given with an interval of ≥4 weeks. A second balixafortide treatment was furthermore tested in volunteers from groups 2, 3 and 6 with groups 2 and 3 receiving 2500 μg/kg and group 6 given 1500 μg/kg as the second infusion. […] Thus, to allow for intra-individual comparison, 12 donors received a second dose of balixafortide (2 h constant infusion rate for all) after a minimum wash-out period of 4 weeks.
# Vital signs were monitored immediately prior to and in the first 24 h after the start of the infusion of balixafortide; serial blood samples were drawn for biochemical safety profiling and pharmacokinetic/pharmacodynamic analyses. Given the cationic nature of the compound [17] the risk of local or systemic symptoms of histamine release was identified and anti-histamine treatment was proposed (per protocol) in case of such symptoms. […] Volunteers who received prophylactic or therapeutic anti-histamine medication are listed accordingly in Table 1.
# [2] = Pharmacokinetics from serial plasma samples after intravenous infusion
# Method: as §1
# Plasma samples were collected at the indicated times and kept frozen until immediately before analysis.
# Serial plasma samples were assayed for balixafortide concentrations and pharmacokinetic parameters were calculated using Phoenix WinNonlin 6.4.
# [3] = system: CD34+ cells (HSPC); assay: Mobilization of CD34+ cells, single platform flow cytometry of blood; format: in vivo, human
# Method: A total of 27 volunteers were treated with balixafortide.
# (§2) Blood samples were collected at the indicated times (Figs. 1, 2, 3, 4, 5 and 6) and kept at room temperature (maximum 2–3 h.) until immediately before analysis. Complete blood counts were assessed with the Sysmex XT1800 hematology analyzer (Norderstedt, Germany). CD34+ cells were quantified using the single platform flow cytometry analysis with the SCE Kit [Becton–Dickinson (BD), Heidelberg, Germany] according to the manufacturer’s instructions and ISHAGE guidelines. In addition, multi-parametric flow cytometric analyses were performed to quantify co-mobilized mature cell subsets such as T (CD45+ CD3+), B (CD45+ CD19+) and NK (CD45+ CD56+ 16+) cells (Multitest, T cells, BD), T cell subpopulations (CD45+ CD3+ CD4+/CD8+, Multitest, TBNL cells, BD) and monocytes (CD45+ CD14+, all from BD). In addition, plasmacytoid dendritic cell progenitors (pro-pDCs) were identified as CD45dimCD34dimCD45RA + CD123high (all moABs from BD). Lyse-no-wash protocols were used in conjunction with BD counting beads for direct cell enumeration for CD34+ cells and T cell subsets; all other cell concentrations were calculated using frequencies relative to directly enumerated cell species, such as CD34+, CD45+ or CD3+ cells.
# [4] = system: leukocytes; assay: Mobilization of mature hematopoietic cells (blood counts, flow cytometry); format: in vivo, human
# Method: as §2
# [5] = system: healthy male volunteers; assay: Subjective rating questionnaire of G-CSF vs. balixafortide at follow-up; conditions: number of responses
# [6] = system: CFU-C (HSPC); assay: Circulating colony-forming units-culture (CFU-C) in methylcellulose media; format: in vivo, human; conditions: all doses, mean ± SEM
# From the text: Circulating colony-forming units-culture (CFU-C) were quantified by plating aliquots of lysed peripheral blood in commercial cytokine-replete methylcellulose media (StemMACS HSC-CFU lite with Epo, human, Miltenyi Biotec GmbH, Bergisch-Gladbach, Germany).
# [7] = system: plasmacytoid dendritic cell progenitors (pro-pDCs); assay: Mobilization of plasmacytoid dendritic cell progenitors (pro-pDCs), flow cytometry; format: in vivo, human; conditions: balixafortide 1st treatment, constant infusion rate, 2 h; n = 21, mean ± SEM
# Method: as §2
# [8] = system: healthy male volunteers; conditions: in vivo
# [9] = system: CD34+ cells; conditions: same daily dose as a single injection; cited from earlier work
# From the text: The ability of CXCR4 antagonists to rapidly dislodge stem cells from the marrow has been recognized for many years. Previously studied compounds were neither universally well tolerated nor very potent. The only currently approved CXCR4 antagonist plerixafor mobilized a median of 16 CD34+ cells per µL when administered alone (without G-CSF) in healthy donors, which is barely sufficient to generate a normal-sized graft in two apheresis sessions. || The comparator agent in our study was G-CSF given in split doses as is routine practice in our center; the rationale is twofold: more efficient mobilization and potentially better tolerability. […] Thus the advantage in efficiency of single-dose G-CSF vs. balixafortide at the doses tested here would be les ...
# [10] = 500 μg/kg, 2 h const. infusion, n = 3 volunteers
# [11] = 1000 μg/kg, 1 h const. infusion, n = 3 volunteers
# [12] = 1000 μg/kg, 2 h const. infusion, n = 7 volunteers
# [13] = 1500 μg/kg, 2 h const. infusion, n = 7 volunteers
# [14] = 2000 μg/kg, 2 h const. infusion, n = 6 volunteers
# [15] = 2000 μg/kg, 2 h ramp infusion, n = 3 volunteers
# [16] = 2500 μg/kg, 2 h const. infusion, n = 10 volunteers
molecule,measurement,setting,value
C[C@@H]1NC(=O)[C@H](Cc2c[nH]cn2)NC(=O)[C@H](Cc2ccc(O)cc2)NC(=O)[C@@H]2CCCN2C(=O)[C@H]2CCCN2C(=O)[C@H](CCCCN)NC(=O)[C@H](CCC(N)=O)NC(=O)[C@H](Cc2ccc(O)cc2)NC(=O)[C@@H]2CSSC[C@H](NC1=O)C(=O)N[C@@H](CO)C(=O)N[C@@H](C)C(=O)N1CCC[C@@H]1C(=O)N[C@@H](CCN)C(=O)N[C@@H](CCCNC(=N)N)C(=O)N[C@@H](Cc1ccc(O)cc1)C(=O)N2 [balixafortide],"Mild skin reactions such as flushing, urticaria or local itching, volunteers reporting",[1]; 500 µg/kg,1/3
same,Infusion site erythema (volunteers with AE),[1]; [10],1
same,Volunteers with AE,[1]; [10],1
same,"Mild skin reactions such as flushing, urticaria or local itching, volunteers reporting",[1]; 1000 µg/kg,4/10
same,Pruritus (volunteers with AE),[1]; [11],1
same,Volunteers with AE,[1]; [11],1
same,BP increase (volunteers with AE),[1]; [12],2
same,Infusion site pruritus (volunteers with AE),[1]; [12],1
same,Pruritus (volunteers with AE),[1]; [12],2
same,Volunteers with AE,[1]; [12],5
same,"Mild skin reactions such as flushing, urticaria or local itching, volunteers reporting",[1]; 1500 µg/kg,2/7
same,Erythema (volunteers with AE),[1]; [13],1
same,Infusion site erythema (volunteers with AE),[1]; [13],2
same,Infusion site irritation (volunteers with AE),[1]; [13],1
same,Infusion site pruritus (volunteers with AE),[1]; [13],1
same,Pruritus (volunteers with AE),[1]; [13],1
same,Urticaria (volunteers with AE),[1]; [13],1
same,Volunteers with AE,[1]; [13],2
same,"Mild skin reactions such as flushing, urticaria or local itching, volunteers reporting",[1]; 2000 µg/kg,8/9
same,Blood CK increased (volunteers with AE),[1]; [14],2
same,Bone pain (volunteers with AE),[1]; [14],1
same,Erythema (volunteers with AE),[1]; [14],4
same,Flushing (volunteers with AE),[1]; [14],1
same,Hypoasthesia (volunteers with AE),[1]; [14],1
same,Pruritus (volunteers with AE),[1]; [14],4
same,Urticaria (volunteers with AE),[1]; [14],1
same,Volunteers with AE,[1]; [14],6
same,Flushing (volunteers with AE),[1]; [15],1
same,Pruritus (volunteers with AE),[1]; [15],2
same,Volunteers with AE,[1]; [15],2
same,"Mild skin reactions such as flushing, urticaria or local itching, volunteers reporting",[1]; 2500 µg/kg,7/10
same,Erythema (volunteers with AE),[1]; [16],7
same,Feeling hot (volunteers with AE),[1]; [16],1
same,Headache (volunteers with AE),[1]; [16],1
same,Hypoasthesia (volunteers with AE),[1]; [16],1
same,Hypoasthesia oral (volunteers with AE),[1]; [16],2
same,Muscle tightness (volunteers with AE),[1]; [16],1
same,Throat tightness (volunteers with AE),[1]; [16],1
same,Vertigo (volunteers with AE),[1]; [16],1
same,Volunteers with AE,[1]; [16],7
same,Severe adverse events (SAEs),"[1]; all doses 500-2500 µg/kg, 27 volunteers, 39 doses",No severe adverse events (SAEs) were observed
same,"Systolic blood pressure reading of >150 mmHg, considered possibly related to study drug",[1]; whole trial,2 subjects
same,"Unexplained elevation in serum creatinine kinase, considered possibly related to study drug",[1]; whole trial,2 subjects
same,Volume of distribution,"[2]; human plasma, i.v. infusion 500-2500 µg/kg, Phoenix WinNonlin 6.4, approximately",500 to 600 mL/kg
same,Clearance,"[2]; human, i.v. infusion",almost equal to the glomerular filtration rate
same,Dose dependence of Cmax and AUC,"[2]; human, i.v. infusion 500-2500 µg/kg, n = 3-6",dose linearity for both Cmax and AUC
same,half-life,"[2]; human, plasma, iv",~300 min
same,Time of peak CD34+ mobilization after the end of the infusion,[3]; 500 µg/kg,1 h
same,Time of peak CD34+ mobilization after the end of the infusion,[3]; doses higher than 500 µg/kg,approximately 4 h
same,Mean peak mobilization of CD34+ cells,"[3]; doses of 1500-2500 µg/kg, single i.v. infusion, mean ± SEM",38.2 ± 2.8 CD34+ cells/µL
same,Mature cells mobilized relative to G-CSF,[4]; doses of 1500-2500 µg/kg,approximately half as many mature cells as G-CSF
same,White blood counts (WBCs) reached,"[4]; doses of 1500-2500 µg/kg, mean ± SEM",25.3 ± 1.4 × 10*3 WBC/µL
same,Side effects in the course of treatment: Abdominal pain,[5],0
same,Side effects in the course of treatment: Bone pain,[5],0
same,Side effects in the course of treatment: Fatigue,[5],4
same,Side effects in the course of treatment: Fever,[5],0
same,Side effects in the course of treatment: Flu-like symptoms,[5],0
same,Side effects in the course of treatment: Headache,[5],1
same,Side effects in the course of treatment: Insomnia,[5],1
same,Side effects in the course of treatment: Palpitation,[5],0
same,Side effects in the course of treatment: Skin reactions,[5],13
same,Side effects in the course of treatment: Sweating,[5],1
same,Side effects in the course of treatment: Vomiting,[5],1
B1,Mobilization response of CD34+ cells,"[3]; 5-day course of filgrastim 7.5-10 µg/kg per day in 2 divided doses, mean ± SEM",121.6 ± 8.6 CD34+ cells/μL
same,"Effectiveness of G-CSF regimen relative to balixafortide, CD34+ mobilization","[3]; intra-individual comparison, balixafortide 1500-2500 µg/kg, on average",about three times as effective
same,Clonogenicity: mobilized CD34+ cells per 1 CFU-C,[6],3.2 ± 0.2 CD34+ cells
same,Mobilization of pDC progenitors (% of CD34+CD45dim),[7],2.18±0.34%
same,Ratio between T-lymphocytes and CD34+ cells in mobilized blood,[4]; mean ± SEM,26.2 ± 1.98 :1
same,Side effects in the course of treatment: Abdominal pain,[8],2
same,Side effects in the course of treatment: Bone pain,[8],24
same,Side effects in the course of treatment: Fatigue,[8],11
same,Side effects in the course of treatment: Fever,[8],2
same,Side effects in the course of treatment: Flu-like symptoms,[8],21
same,Side effects in the course of treatment: Headache,[8],11
same,Side effects in the course of treatment: Insomnia,[8],0
same,Side effects in the course of treatment: Palpitation,[8],1
same,Side effects in the course of treatment: Skin reactions,[8],1
same,Side effects in the course of treatment: Sweating,[8],0
same,Side effects in the course of treatment: Vomiting,[8],0
same,Average CD34+ cell counts,[9],mid-sixties’ range
